Active and inactive are the calls of the source. The rule behind the calls is not given here.
target: T1, D(2) dopamine receptor (Homo sapiens, UniProt P14416); experiment: Displacement of [3H]-N-methylspiperone from human dopamine D2 receptor expressed in HEK293 cell membranes incubated for 60 mins by microbeta scintillation counting analysis; design: species or system Membrane; conditions: not given
T1 sequence (P14416 whole entry): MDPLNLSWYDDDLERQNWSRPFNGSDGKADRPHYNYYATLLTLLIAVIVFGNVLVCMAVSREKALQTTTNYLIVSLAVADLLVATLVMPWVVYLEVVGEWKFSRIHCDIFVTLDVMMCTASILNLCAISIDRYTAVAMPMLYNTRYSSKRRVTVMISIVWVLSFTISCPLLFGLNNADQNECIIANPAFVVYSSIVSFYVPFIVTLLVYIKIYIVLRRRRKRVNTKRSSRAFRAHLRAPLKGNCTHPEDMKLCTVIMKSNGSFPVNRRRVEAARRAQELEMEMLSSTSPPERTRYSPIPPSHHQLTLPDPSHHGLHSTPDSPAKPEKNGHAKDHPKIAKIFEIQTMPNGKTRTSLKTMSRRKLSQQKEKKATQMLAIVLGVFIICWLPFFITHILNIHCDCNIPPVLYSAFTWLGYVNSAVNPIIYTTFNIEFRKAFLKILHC

Row | Compound | Ki
1 | CN(C)CCC(C#N)(c1ccccc1)c1ccccc1 | 17900 nM
2 | O=C(NCCCCN1CC[C@]2(c3cccc(O)c3)CCC[C@H]1[C@@H]2O)c1cc2ccccc2[nH]1 | 4530 nM
3 | Oc1cccc(C(CCNCCCCN2CCN(c3ccccc3)CC2)c2cccc(O)c2)c1 | 987 nM
4 | N#CC(CCNCCCCC(=O)N1CCN(c2cccc(Cl)c2Cl)CC1)(c1ccccc1)c1ccccc1 | 1940 nM
5 | CCc1cccc(N2CCN(CCC(c3cccc(O)c3)c3cccc(O)c3)CC2)c1Cl | 187 nM
6 | CN(C)C(=O)C(CCNCCc1ccccc1)(c1ccccc1)c1ccccc1 | 3650 nM
7 | CCc1cc(Cl)c(OC)c(C(=O)NC[C@@H]2CCCN2CCCCNCCC(C(=O)N(C)C)(c2ccccc2)c2ccccc2)c1O | 1730 nM
8 | CCc1cccc(N2CCN(CCC(c3cccc(OC)c3)c3cccc(OC)c3)CC2)c1Cl | 170 nM
9 | CCc1cccc(N2CCN(CCC(C(=O)N(C)C)(c3ccccc3)c3ccccc3)CC2)c1Cl | 43 nM
10 | CCOC(=O)/C=C1\[C@@H]2CCC[C@@]1(c1cccc(O)c1)CCN2CCN1CCN(c2cccc(Cl)c2Cl)CC1 | 51.6 nM
11 | CN(C)C(=O)C(CCN1CCC(O)(c2ccc(Cl)cc2)CC1)(c1ccccc1)c1ccccc1 [LOPERAMIDE] | 5790 nM
12 | CCc1cc(Cl)c(OC)c(C(=O)NCC2CCCN2CC(=O)N2CCC(c3ccccc3)(c3ccccc3)C2)c1O (stereo not given) | 2380 nM
13 | CCc1cccc(N2CCN(CC(O)CCNCCC(C(=O)N(C)C)(c3ccccc3)c3ccccc3)CC2)c1Cl (stereo not given) | 457 nM
14 | CCC(=O)N1CCC(c2ccccc2)(c2ccccc2)C1 | > 100000 nM
15 | CCOC(=O)/C=C1\[C@@H]2CCC[C@@]1(c1cccc(O)c1)CCN2C[C@H]1C[C@@H]1CCNC(=O)c1cc2ccccc2[nH]1 (relative stereo) | 2860 nM
16 | CCc1cc(Cl)c(OC)c(C(=O)NCC2CCCN2CCCCNCCC(C(=O)N(C)C)(c2ccccc2)c2ccccc2)c1O (stereo not given) | 502 nM
17 | N#CC(CCNCCC(O)CN1CCN(c2cccc(Cl)c2Cl)CC1)(c1ccccc1)c1ccccc1 (stereo not given) | 903 nM
18 | CN(C)C(=O)C(CCN1CCN(c2cccc(Cl)c2Cl)CC1)(c1ccccc1)c1ccccc1 | 74.7 nM
19 | COc1cccc(C(=CCNCCCCN2CCN(c3cccc(Cl)c3Cl)CC2)c2cccc(OC)c2)c1 | 5240 nM
20 | CCOC(=O)/C=C1\[C@@H]2CCC[C@@]1(c1cccc(O)c1)CCN2 | > 100000 nM
21 | CCc1cc(Cl)c(OC)c(C(=O)NC[C@@H]2C[C@@H](OCCCCNCCC(C(=O)N(C)C)(c3ccccc3)c3ccccc3)CN2)c1O | 9.41 nM

target: T2, D(3) dopamine receptor (Homo sapiens, UniProt P35462); experiment: Displacement of [3H]-N-methylspiperone from human dopamine D3 receptor expressed in HEK293 cell membranes incubated for 60 mins by microbeta scintillation counting analysis; design: species or system Membrane; conditions: not given
T2 sequence (P35462 whole entry): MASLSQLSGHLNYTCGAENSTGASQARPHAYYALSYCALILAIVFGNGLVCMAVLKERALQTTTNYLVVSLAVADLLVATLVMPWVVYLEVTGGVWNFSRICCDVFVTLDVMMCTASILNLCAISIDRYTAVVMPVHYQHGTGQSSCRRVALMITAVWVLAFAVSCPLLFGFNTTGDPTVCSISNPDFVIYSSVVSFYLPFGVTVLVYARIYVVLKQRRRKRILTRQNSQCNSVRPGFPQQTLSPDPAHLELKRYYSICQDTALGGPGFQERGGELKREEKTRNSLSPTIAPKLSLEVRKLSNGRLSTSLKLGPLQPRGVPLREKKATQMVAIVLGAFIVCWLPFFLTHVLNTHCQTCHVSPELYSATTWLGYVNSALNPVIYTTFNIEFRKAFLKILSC

Row | Compound | Ki
22 | CN(C)CCC(C#N)(c1ccccc1)c1ccccc1 | 16100 nM
23 | O=C(NCCCCN1CC[C@]2(c3cccc(O)c3)CCC[C@H]1[C@@H]2O)c1cc2ccccc2[nH]1 | 5630 nM
24 | Oc1cccc(C(CCNCCCCN2CCN(c3ccccc3)CC2)c2cccc(O)c2)c1 | 249 nM
25 | N#CC(CCNCCCCC(=O)N1CCN(c2cccc(Cl)c2Cl)CC1)(c1ccccc1)c1ccccc1 | 1360 nM
26 | CCc1cccc(N2CCN(CCC(c3cccc(O)c3)c3cccc(O)c3)CC2)c1Cl | 200 nM
27 | CN(C)C(=O)C(CCNCCc1ccccc1)(c1ccccc1)c1ccccc1 | 2080 nM
28 | CCc1cccc(N2CCN(CCC(c3cccc(OC)c3)c3cccc(OC)c3)CC2)c1Cl | 93.8 nM
29 | CCc1cccc(N2CCN(CCC(C(=O)N(C)C)(c3ccccc3)c3ccccc3)CC2)c1Cl | 69 nM
31 | CCc1cc(Cl)c(OC)c(C(=O)NCC2CCCN2CC(=O)N2CCC(c3ccccc3)(c3ccccc3)C2)c1O (stereo not given) | 288 nM
32 | CCc1cccc(N2CCN(CC(O)CCNCCC(C(=O)N(C)C)(c3ccccc3)c3ccccc3)CC2)c1Cl (stereo not given) | 123 nM
33 | CCC(=O)N1CCC(c2ccccc2)(c2ccccc2)C1 | > 100000 nM
34 | CCOC(=O)/C=C1\[C@@H]2CCC[C@@]1(c1cccc(O)c1)CCN2C[C@H]1C[C@@H]1CCNC(=O)c1cc2ccccc2[nH]1 (relative stereo) | 1290 nM
35 | N#CC(CCNCCC(O)CN1CCN(c2cccc(Cl)c2Cl)CC1)(c1ccccc1)c1ccccc1 (stereo not given) | 460 nM
36 | COc1cccc(C(=CCNCCCCN2CCN(c3cccc(Cl)c3Cl)CC2)c2cccc(OC)c2)c1 | 342 nM
37 | CCOC(=O)/C=C1\[C@@H]2CCC[C@@]1(c1cccc(O)c1)CCN2 | > 100000 nM
38 | CCc1cc(Cl)c(OC)c(C(=O)NC[C@@H]2C[C@@H](OCCCCNCCC(C(=O)N(C)C)(c3ccccc3)c3ccccc3)CN2)c1O | 2.21 nM

target: T3, D(4) dopamine receptor (Homo sapiens, UniProt P21917); experiment: Displacement of [3H]-N-methylspiperone from human dopamine D4 receptor expressed in HEK293 cell membranes incubated for 60 mins by microbeta scintillation counting analysis; design: species or system Membrane; conditions: not given
T3 sequence (P21917 whole entry): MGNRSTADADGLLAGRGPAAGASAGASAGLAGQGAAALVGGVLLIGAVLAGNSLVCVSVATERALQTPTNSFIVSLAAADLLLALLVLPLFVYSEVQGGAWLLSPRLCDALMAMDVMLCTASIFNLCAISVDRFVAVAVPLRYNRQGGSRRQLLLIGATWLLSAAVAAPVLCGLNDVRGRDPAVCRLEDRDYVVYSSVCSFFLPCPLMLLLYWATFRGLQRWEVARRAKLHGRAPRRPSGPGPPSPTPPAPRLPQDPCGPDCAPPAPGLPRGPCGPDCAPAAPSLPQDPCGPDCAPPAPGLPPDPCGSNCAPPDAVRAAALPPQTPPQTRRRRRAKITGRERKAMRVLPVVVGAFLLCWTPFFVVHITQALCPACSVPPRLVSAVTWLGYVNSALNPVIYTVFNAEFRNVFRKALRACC

Row | Compound | Ki
39 | CN(C)CCC(C#N)(c1ccccc1)c1ccccc1 | 23200 nM
40 | O=C(NCCCCN1CC[C@]2(c3cccc(O)c3)CCC[C@H]1[C@@H]2O)c1cc2ccccc2[nH]1 | 5630 nM
41 | Oc1cccc(C(CCNCCCCN2CCN(c3ccccc3)CC2)c2cccc(O)c2)c1 | 422 nM
42 | N#CC(CCNCCCCC(=O)N1CCN(c2cccc(Cl)c2Cl)CC1)(c1ccccc1)c1ccccc1 | 3930 nM
43 | CCc1cccc(N2CCN(CCC(c3cccc(O)c3)c3cccc(O)c3)CC2)c1Cl | 19.2 nM
44 | CN(C)C(=O)C(CCNCCc1ccccc1)(c1ccccc1)c1ccccc1 | 12600 nM
45 | CCc1cc(Cl)c(OC)c(C(=O)NC[C@@H]2CCCN2CCCCNCCC(C(=O)N(C)C)(c2ccccc2)c2ccccc2)c1O | 6610 nM
46 | CCc1cccc(N2CCN(CCC(c3cccc(OC)c3)c3cccc(OC)c3)CC2)c1Cl | 63.4 nM
47 | CCc1cccc(N2CCN(CCC(C(=O)N(C)C)(c3ccccc3)c3ccccc3)CC2)c1Cl | 64.8 nM
48 | CCOC(=O)/C=C1\[C@@H]2CCC[C@@]1(c1cccc(O)c1)CCN2CCN1CCN(c2cccc(Cl)c2Cl)CC1 | 1600 nM
49 | CN(C)C(=O)C(CCN1CCC(O)(c2ccc(Cl)cc2)CC1)(c1ccccc1)c1ccccc1 [LOPERAMIDE] | 1850 nM
50 | CN(C)C(=O)C(CCNCCCCN1CCN(c2cccc(Cl)c2Cl)CC1)(c1ccccc1)c1ccccc1 | 378 nM
51 | CCc1cc(Cl)c(OC)c(C(=O)NCC2CCCN2CC(=O)N2CCC(c3ccccc3)(c3ccccc3)C2)c1O (stereo not given) | 31000 nM
52 | CCc1cccc(N2CCN(CC(O)CCNCCC(C(=O)N(C)C)(c3ccccc3)c3ccccc3)CC2)c1Cl (stereo not given) | 1260 nM
53 | CCC(=O)N1CCC(c2ccccc2)(c2ccccc2)C1 | > 100000 nM
54 | CCOC(=O)/C=C1\[C@@H]2CCC[C@@]1(c1cccc(O)c1)CCN2C[C@H]1C[C@@H]1CCNC(=O)c1cc2ccccc2[nH]1 (relative stereo) | 29200 nM
55 | CCc1cc(Cl)c(OC)c(C(=O)NCC2CCCN2CCCCNCCC(C(=O)N(C)C)(c2ccccc2)c2ccccc2)c1O (stereo not given) | 3420 nM
56 | N#CC(CCNCCC(O)CN1CCN(c2cccc(Cl)c2Cl)CC1)(c1ccccc1)c1ccccc1 (stereo not given) | 426 nM
57 | CN(C)C(=O)C(CCN1CCN(c2cccc(Cl)c2Cl)CC1)(c1ccccc1)c1ccccc1 | 102 nM
58 | COc1cccc(C(=CCNCCCCN2CCN(c3cccc(Cl)c3Cl)CC2)c2cccc(OC)c2)c1 | 26100 nM
59 | CCOC(=O)/C=C1\[C@@H]2CCC[C@@]1(c1cccc(O)c1)CCN2 | > 100000 nM
60 | CCc1cc(Cl)c(OC)c(C(=O)NC[C@@H]2C[C@@H](OCCCCNCCC(C(=O)N(C)C)(c3ccccc3)c3ccccc3)CN2)c1O | 674 nM

target: T1, D(2) dopamine receptor; experiment: Displacement of [3H]-(R)-(+)7-OH-DPAT from human dopamine D2 receptor expressed in HEK293 cell membranes incubated for 90 mins by microbeta scintillation counting analysis; design: species or system Membrane; conditions: not given

Row | Compound | Ki
61 | CCc1cccc(N2CCN(CCC(C(=O)N(C)C)(c3ccccc3)c3ccccc3)CC2)c1Cl | 20.3 nM
62 | CCc1cccc(N2CCN(CC(O)CCNCCC(C(=O)N(C)C)(c3ccccc3)c3ccccc3)CC2)c1Cl (stereo not given) | 114 nM
63 | CCc1cc(Cl)c(OC)c(C(=O)NCC2CCCN2CCCCNCCC(C(=O)N(C)C)(c2ccccc2)c2ccccc2)c1O (stereo not given) | 93.7 nM
64 | CN(C)C(=O)C(CCN1CCN(c2cccc(Cl)c2Cl)CC1)(c1ccccc1)c1ccccc1 | 31.3 nM

target: T2, D(3) dopamine receptor; experiment: Displacement of [3H]-(R)-(+)7-OH-DPAT from human dopamine D3 receptor expressed in HEK293 cell membranes incubated for 90 mins by microbeta scintillation counting analysis; design: species or system Membrane; conditions: not given

Row | Compound | Ki
65 | CCc1cccc(N2CCN(CCC(C(=O)N(C)C)(c3ccccc3)c3ccccc3)CC2)c1Cl | 197 nM
66 | CCc1cccc(N2CCN(CC(O)CCNCCC(C(=O)N(C)C)(c3ccccc3)c3ccccc3)CC2)c1Cl (stereo not given) | 123 nM

target: T2, D(3) dopamine receptor; experiment: Agonist activity at human dopamine D3 receptor expressed in HEK293T cells assessed as GalphaoA activation preincubated for 5 mins with coelenterazine followed by compound addition and measured after 10 mins by BRET assay; type: functional, cell-based; conditions: not given

Row | Compound | EC50
67 | CCOC(=O)/C=C1\[C@@H]2CCC[C@@]1(c1cccc(O)c1)CCN2C[C@H]1C[C@@H]1CCNC(=O)c1cc2ccccc2[nH]1 (relative stereo) | 1480 nM

target: Mu-type opioid receptor (Homo sapiens) (UniProt P35372); conditions: HEK293T, time 10.0 min
Sequence (P35372 whole entry): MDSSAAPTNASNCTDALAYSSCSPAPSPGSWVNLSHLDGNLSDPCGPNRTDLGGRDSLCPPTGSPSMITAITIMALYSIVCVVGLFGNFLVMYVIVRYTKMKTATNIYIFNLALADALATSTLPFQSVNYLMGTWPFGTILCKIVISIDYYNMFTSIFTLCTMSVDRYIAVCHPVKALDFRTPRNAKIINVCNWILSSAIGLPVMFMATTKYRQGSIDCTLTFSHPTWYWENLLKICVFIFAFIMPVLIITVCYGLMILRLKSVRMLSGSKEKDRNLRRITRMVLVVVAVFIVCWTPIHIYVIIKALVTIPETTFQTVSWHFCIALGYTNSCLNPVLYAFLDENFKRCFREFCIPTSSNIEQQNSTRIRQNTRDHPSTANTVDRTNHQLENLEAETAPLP

Row | Compound | pEC50
68 | CCOC(=O)/C=C1\[C@@H]2CCC[C@@]1(c1cccc(O)c1)CCN2C[C@H]1C[C@@H]1CCNC(=O)c1cc2ccccc2[nH]1 (relative stereo) | inactive

target: Mu-type opioid receptor (Homo sapiens) (UniProt P35372); conditions: HEK293T, time 10.0 min; remark: another data set of the same source

Row | Compound | pEC50
69 | CCOC(=O)/C=C1\[C@@H]2CCC[C@@]1(c1cccc(O)c1)CCN2C[C@H]1C[C@@H]1CCNC(=O)c1cc2ccccc2[nH]1 (relative stereo) | inactive

target: Mu-type opioid receptor (Homo sapiens) (UniProt P35372); conditions: HEK293T, time 10.0 min; remark: another data set of the same source

Row | Compound | pEC50
70 | CCOC(=O)/C=C1\[C@@H]2CCC[C@@]1(c1cccc(O)c1)CCN2C[C@H]1C[C@@H]1CCNC(=O)c1cc2ccccc2[nH]1 (relative stereo) | inactive

From ChEMBL document CHEMBL5046218, “Novel Dual-Target μ-Opioid Receptor and Dopamine D3 Receptor Ligands as Potential Nonaddictive Pharmacotherapeutics for Pain Management” (J Med Chem, 2021)
